ChEMBL document CHEMBL1201862, “PubChem BioAssay data set” (2004)
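Following 48 hours of exposure in 96-well plates, responses at five concentrations were used to interpolate endpoints linearly. The concentration for 50% growth inhibition is given as GI50.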 Calls of active or inactive are those of the source. No stated cut-off is given here; in the data, active = GI50 up to about 1.1 µM and inactive = higher.

How the values were obtained:
Assay in all cases: inhibition of tumour cell growth, NCI panel, 48 h
MOLT-4 = system: MOLT-4
SK-MEL-5 = system: SK-MEL-5
SK-MEL-28 = system: SK-MEL-28
NCI/ADR-RES = system: NCI/ADR-RES
U-251 = system: U-251
M14 = system: M14
HCT-15 = system: HCT-15
OVCAR-8 = system: OVCAR-8
SN12C = system: SN12C
SK-OV-3 = system: SK-OV-3
MDA-N = system: MDA-N
MCF7 = system: MCF7
MDA-MB-435 = system: MDA-MB-435
HCT-116 = system: HCT-116
SF-268 = system: SF-268
COLO 205 = system: COLO 205
OVCAR-3 = system: OVCAR-3
SNB-75 = system: SNB-75
NCI-H23 = system: NCI-H23
A498 = system: A498

Row | SMILES | GI50 (MOLT-4) | GI50 (SK-MEL-5) | GI50 (SK-MEL-28) | GI50 (NCI/ADR-RES) | GI50 (U-251) | GI50 (M14) | GI50 (HCT-15) | GI50 (OVCAR-8) | GI50 (SN12C) | GI50 (SK-OV-3) | GI50 (MDA-N) | GI50 (MCF7) | GI50 (MDA-MB-435) | GI50 (HCT-116) | GI50 (SF-268) | GI50 (COLO 205) | GI50 (OVCAR-3) | GI50 (SNB-75) | GI50 (NCI-H23) | GI50 (A498)
1 | CC(=O)O[C@H]1CC[C@H]2[C@@H]3CCC4=C/C(=N/OCCN(C)C)CC[C@]4(C)[C@H]3CC[C@]12C | 5.42 µM (inactive) | 4.58 µM (inactive) | 14.6 µM (inactive) | 12.6 µM (inactive) | 13.3 µM (inactive) | 3.18 µM (inactive) | 2.22 µM | 13.4 µM (inactive) | 16.9 µM (inactive) | 12.2 µM (inactive) | 3.65 µM (inactive) | 5.64 µM (inactive) | 2.19 µM (inactive) | 4.25 µM (inactive) | 13.1 µM (inactive) | 2.27 µM (inactive) | 12.8 µM (inactive) | 6.68 µM (inactive) | 12.9 µM (inactive) | 
2 | O=C1OC[C@@H]2Cc3c([nH]c4ccccc34)[C@@H](c3cc(O)c(O)c(O)c3)N12 | 32.6 µM (inactive) | 8.39 µM (inactive) | 17.3 µM (inactive) | 21.8 µM (inactive) | 25.3 µM (inactive) | 15.2 µM (inactive) | 31 µM | 16.4 µM (inactive) | 26.9 µM (inactive) | > 100 µM (inactive) | 5.97 µM (inactive) | 21.2 µM (inactive) | 2.69 µM (inactive) | 25.3 µM (inactive) | 34.9 µM (inactive) | 23.4 µM (inactive) |  | 3.29 µM (inactive) | 29.4 µM (inactive) | 12 µM (inactive)
3 | Cc1cc(N(CCC#N)CCC#N)ccc1C(/N=N/c1ccc(Cl)cc1)=N\NC(=O)c1ccccc1 | 40 µM (inactive) | 22 µM (inactive) |  | 27.4 µM (inactive) | 40.7 µM (inactive) | 80.5 µM (inactive) | 16 µM | 42.1 µM (inactive) | 44.2 µM (inactive) | 42.6 µM (inactive) | 5.21 µM (inactive) | 13.6 µM (inactive) | 5.62 µM (inactive) | 26.5 µM (inactive) | 41.9 µM (inactive) | 27.6 µM (inactive) | 42.1 µM (inactive) | 49.5 µM (inactive) | 33.7 µM (inactive) | 13.6 µM (inactive)
4 | COc1ccc(-c2oc3cc(OC(C)=O)cc(OC(C)=O)c3c(=O)c2OC)cc1 | 20.2 µM (inactive) | 12.4 µM (inactive) | 13.7 µM (inactive) | 14.7 µM (inactive) | 14.2 µM (inactive) | 14.5 µM (inactive) | 20.8 µM | 17 µM (inactive) |  | 28.8 µM (inactive) | 12.7 µM (inactive) | 20.7 µM (inactive) | 10.4 µM (inactive) | 21 µM (inactive) | 15.4 µM (inactive) | 15.9 µM (inactive) | 15 µM (inactive) |  |  | 21.7 µM (inactive)
5 | COc1c(C(=O)/C(=N/Nc2cccc(Cl)c2)C(C)=O)c(O)c(OC)c2occc12 | 39.5 µM (inactive) | > 100 µM (inactive) | > 100 µM (inactive) | > 100 µM (inactive) | > 100 µM (inactive) | > 100 µM (inactive) | > 100 µM | 60.4 µM (inactive) | 61.2 µM (inactive) | > 100 µM (inactive) | > 100 µM (inactive) | > 100 µM (inactive) | > 100 µM (inactive) | > 100 µM (inactive) | 87.3 µM (inactive) | > 100 µM (inactive) | > 100 µM (inactive) | 13 µM (inactive) | > 100 µM (inactive) | 
6 | Cc1ccc(S(=O)(=O)N2CCCN(S(=O)(=O)c3ccc(C)cc3)CC2)cc1 | > 100 µM (inactive) | > 100 µM (inactive) | > 100 µM (inactive) | > 100 µM (inactive) | > 100 µM (inactive) | > 100 µM (inactive) | > 100 µM | > 100 µM (inactive) | > 100 µM (inactive) |  | > 100 µM (inactive) | > 100 µM (inactive) | > 100 µM (inactive) | > 100 µM (inactive) | > 100 µM (inactive) | > 100 µM (inactive) | > 100 µM (inactive) | > 100 µM (inactive) | > 100 µM (inactive) | 2.75 µM (inactive)
7 | CC(C)CC(C(N)=O)C(=O)NC(Cc1ccccc1)NC(=O)CNC(=O)C(C)NC(=O)C(N)Cc1ccc(O)cc1 (stereo unspecified) | > 100 µM (inactive) | > 100 µM (inactive) | > 100 µM (inactive) | > 100 µM (inactive) | > 100 µM (inactive) | > 100 µM (inactive) | > 100 µM | > 100 µM (inactive) | > 100 µM (inactive) | > 100 µM (inactive) | > 100 µM (inactive) | > 100 µM (inactive) | > 100 µM (inactive) | > 100 µM (inactive) | > 100 µM (inactive) | > 100 µM (inactive) | > 100 µM (inactive) | > 100 µM (inactive) | > 100 µM (inactive) | 
